Key:
Format in all cases: cell-based
Conditions in all cases: fluorescent calcium assay
[1] = biological target: TRPML1 (Homo sapiens, UniProt Q9GZU1); experiment: Fluorescent TRPML1 assay (Fluo4-AM calcium fluorescence in doxycycline-induced HEK-293 Trex cells)
Summary of the method: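 HEK-293 Trex cells stably expressing surface-directed mutant human TRPML1, induced with 0.5 µg/mL doxycycline overnight, were loaded with 1 µM Fluo4-AM and added to compound (6 nM–20 µM final, half-log steps, triplicate) in Ringer's with 10 mM calcium. Fluorescence ex 480/em 540; EC50 by non-linear regression versus plate controls.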

[2] = biological target: T1, TRPML3 (Homo sapiens, UniProt Q8TDD5); experiment: Fluorescent TRPML3 assay (performed as for TRPML1, substituting the TRPML3 subtype)
T1 construct: expressed in transfected cells
T1 sequence (Q8TDD5 1-553): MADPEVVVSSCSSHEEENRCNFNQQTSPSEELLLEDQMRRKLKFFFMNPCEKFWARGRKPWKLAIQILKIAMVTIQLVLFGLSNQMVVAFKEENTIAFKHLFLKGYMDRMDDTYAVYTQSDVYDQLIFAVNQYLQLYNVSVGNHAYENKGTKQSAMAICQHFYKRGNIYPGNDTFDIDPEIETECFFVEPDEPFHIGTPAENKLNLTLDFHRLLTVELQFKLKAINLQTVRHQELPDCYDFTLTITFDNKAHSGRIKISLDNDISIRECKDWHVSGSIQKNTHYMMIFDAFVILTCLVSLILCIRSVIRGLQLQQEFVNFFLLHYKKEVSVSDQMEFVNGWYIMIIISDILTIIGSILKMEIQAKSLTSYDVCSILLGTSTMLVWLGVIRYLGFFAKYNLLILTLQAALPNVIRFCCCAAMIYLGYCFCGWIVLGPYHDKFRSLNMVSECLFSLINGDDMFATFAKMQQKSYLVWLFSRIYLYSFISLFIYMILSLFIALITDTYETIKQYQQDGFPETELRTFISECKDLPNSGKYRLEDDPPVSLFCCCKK
Summary of the method: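 HEK-293 Trex, dox-induced (0.5 ug/mL), mutated for surface expression. Fluo4-AM 1 micromolar load ~60 min, dark; buffer modified Ringer's, 10 mM Ca. Cpds 20 micromolar–6 nanomolar final, half-log, n=3. Read ex 480/em 540; % activity vs controls; EC50 nonlinear fit.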

[3] = biological target: T2, TRPML2 (Homo sapiens, UniProt Q8IZK6); experiment: Fluorescent TRPML2 assay (performed as for TRPML1, substituting the TRPML2 subtype)
T2 construct: expressed in transfected cells
T2 sequence (Q8IZK6 1-566): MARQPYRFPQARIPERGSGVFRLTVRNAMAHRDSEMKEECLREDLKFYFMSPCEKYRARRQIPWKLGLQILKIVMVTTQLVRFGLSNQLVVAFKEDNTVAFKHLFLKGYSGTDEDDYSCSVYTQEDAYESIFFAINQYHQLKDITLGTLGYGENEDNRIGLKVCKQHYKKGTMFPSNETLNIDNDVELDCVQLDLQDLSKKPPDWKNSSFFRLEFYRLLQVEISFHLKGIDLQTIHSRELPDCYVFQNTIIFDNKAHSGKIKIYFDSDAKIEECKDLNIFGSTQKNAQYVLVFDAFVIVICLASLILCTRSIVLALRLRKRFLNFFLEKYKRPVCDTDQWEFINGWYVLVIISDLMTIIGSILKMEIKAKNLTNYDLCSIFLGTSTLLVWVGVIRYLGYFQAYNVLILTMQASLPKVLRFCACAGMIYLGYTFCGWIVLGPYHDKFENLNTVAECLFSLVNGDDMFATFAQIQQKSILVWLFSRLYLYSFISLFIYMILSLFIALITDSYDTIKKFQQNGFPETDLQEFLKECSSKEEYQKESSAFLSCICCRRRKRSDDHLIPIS
Protocol: HEK-293 Trex cells were stably transfected with a construct consisting of the human coding sequence for TRPML1 cloned into the […] plasmid pCDNA5 T/O. Mutations were introduced into the TRPML1 sequence to facilitate expression on the cell surface (Silvia Vergarajauregui, Rosa Puertollano, Traffic. 2006 March; 7(3): 337-353). Briefly, the cells are cultured in 150 mm round tissue culture dishes containing 20 mL of media. The day before the assay the cells are rinsed with DPBS-Ca—Mg and then treated briefly with Trypsin-EDTA. The Trypsin-EDTA is diluted with growth media, and cells are counted. 38×10^6 cells are re-plated into 150 mm round tissue culture dishes in media containing 0.5 ug/mL doxycycline to induce expression of hTRPML1.
The day of the experiment cells are lifted from the plates as above and collected by centrifugation. The cells are then suspended in dye loading buffer consisting of Ringer's solution supplemented with 0.1% Pluronic Acid and 1 micromolar Fluo4-AM dye. Cells are loaded for ˜60 minutes in the dark with occasional mixing. The cells are collected by centrifugation, the loading media aspirated, and the cells resuspended in 25 mL Ringer's solution and incubated ˜60 minutes in the dark. The cells are again collected by centrifugation, rinsed in Ringer's Solution and resuspended to […] in modified Ringer's solution containing 10 mM calcium.
Compounds are dissolved to a concentration of 10 millimolar with DMSO. Compound plates are created by dispensing compounds into 384 well black wall clear bottom plates (Greiner 781091). Positive and negative controls are included on each plate. Typically, different amounts of each compound are tested ranging from 100 nanoMoles (20 micromolar final concentration) decreasing in half-log steps to 31 picoMoles (6 nanomolar final concentration). Each concentration is typically tested in triplicate.
50 microliters of dye-loaded cells are dispensed into each well of the compound assay plate created above. The fluorescence in each well is then determined with an excitation wavelength of 480 nm and an emission wavelength of 540 nm using either a Molecular Devices SpectraMax multimode plate reader or a Hamamatsu FDSS/uCell plate imager.
The resulting fluorescence for each well is exported as an ascii file and loaded into our LIMS for analysis. The percent activity of each compound at each concentration is determined by comparison to the positive and negative control wells included in each plate.
TRPML2 and TRPML3 Assays Assays for TRPML2 and TRPML3 were performed as above for TRPML1, by substituting the appropriate TRPML2 or TRPML3 subtype for the TRPML1.
EC50 values were calculated using a non-linear regression of Prism. In the table, “A” indicates an EC50 of less than 100 nM, “B” indicates an EC50 range from 100 nM to 500 nM; “C” indicates an EC50 range from 500 nM to 2 μM; and “D” indicates an EC50 greater than 2 μM.

Chain of TRPML1 (Q9GZU1 whole entry L15A/L16A/L577A/L578A, form open): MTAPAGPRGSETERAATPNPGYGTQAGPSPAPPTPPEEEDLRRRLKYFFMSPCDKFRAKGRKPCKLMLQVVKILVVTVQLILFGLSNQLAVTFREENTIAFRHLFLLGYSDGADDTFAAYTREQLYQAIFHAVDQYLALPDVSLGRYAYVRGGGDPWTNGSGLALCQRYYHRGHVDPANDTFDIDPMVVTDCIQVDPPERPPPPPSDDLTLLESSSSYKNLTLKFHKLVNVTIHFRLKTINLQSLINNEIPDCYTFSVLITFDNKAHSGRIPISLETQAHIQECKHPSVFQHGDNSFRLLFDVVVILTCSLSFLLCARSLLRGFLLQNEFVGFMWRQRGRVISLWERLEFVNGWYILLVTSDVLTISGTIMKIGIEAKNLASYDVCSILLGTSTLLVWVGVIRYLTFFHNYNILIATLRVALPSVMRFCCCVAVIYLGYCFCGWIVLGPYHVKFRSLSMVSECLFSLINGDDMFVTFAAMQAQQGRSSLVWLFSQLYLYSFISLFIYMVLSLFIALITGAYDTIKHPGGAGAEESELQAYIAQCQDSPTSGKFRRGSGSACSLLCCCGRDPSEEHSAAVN

`C[C@H]1CN(C(=O)OC(C)(C)C)CCN1c1ncnc2c1c(C1CC1)cn2-c1ccc(Cl)cc1` [Compound 114, tert-butyl (S)-4-(7-(4-chlorophenyl)-5-cyclopropyl-7H-pyrrolo[2,3-d]pyrimidin-4-yl)-3-methylpiperazine-1-carboxylate] was tested, and the EC50 [1] was < 0.1 µM, the EC50 [2] was < 0.1 µM and the EC50 [3] was < 0.1 µM.
`C[C@H]1CN(C(=O)OC(C)(C)C)CCN1c1ncnc2c1c(-c1ccncn1)cn2-c1cccc(Cl)c1` [Compound 115, tert-butyl (S)-4-(7-(3-chlorophenyl)-5-(pyrimidin-4-yl)-7H-pyrrolo[2,3-d]pyrimidin-4-yl)-3-methylpiperazine-1-carboxylate] showed an EC50 [1] of 0.1 to 0.5 µM, an EC50 [2] of 0.1 to 0.5 µM and an EC50 [3] of 0.5 to 2 µM.
In the case of `C[C@H]1CN(C(=O)OC(C)(C)C)CCN1c1ncnc2c1c(-c1ncccn1)cn2-c1cccc(Cl)c1` [Compound 116, tert-butyl (S)-4-(7-(3-chlorophenyl)-5-(pyrimidin-2-yl)-7H-pyrrolo[2,3-d]pyrimidin-4-yl)-3-methylpiperazine-1-carboxylate], the EC50 [1] is reported as 0.1 to 0.5 µM, the EC50 [2] is reported as 0.1 to 0.5 µM and the EC50 [3] is reported as 0.5 to 2 µM.
In the case of `C[C@@H]1CN(c2ncnc3c2c(-c2ccccn2)cn3-c2cccc(Cl)c2)[C@@H](C)CN1C(=O)OC(C)(C)C` [Compound 117, tert-butyl (2R,5S)-4-(7-(3-chlorophenyl)-5-(pyridin-2-yl)-7H-pyrrolo[2,3-d]pyrimidin-4-yl)-2,5-dimethylpiperazine-1-carboxylate], the EC50 [1] is reported as < 0.1 µM, the EC50 [2] is reported as < 0.1 µM and the EC50 [3] is reported as 0.1 to 0.5 µM.
For `CCOC(=O)N1C[C@H](C)N(c2ncnc3c2c(-c2ccccn2)cn3-c2cccc(Cl)c2)C[C@H]1C` [Compound 118, Ethyl (2R,5S)-4-(7-(3-chlorophenyl)-5-(pyridin-2-yl)-7H-pyrrolo[2,3-d]pyrimidin-4-yl)-2,5-dimethylpiperazine-1-carboxylate], the EC50 [1] was 0.1 to 0.5 µM, the EC50 [2] was 0.5 to 2 µM and the EC50 [3] was > 2 µM.
With `C[C@H]1CN(C(=O)OC(C)(C)C)CCN1c1ncnc2c1c(-c1ccccn1)cn2-c1cccc(Cl)c1` [Compound 119, tert-butyl (S)-4-(7-(3-chlorophenyl)-5-(pyridin-2-yl)-7H-pyrrolo[2,3-d]pyrimidin-4-yl)-3-methylpiperazine-1-carboxylate] the EC50 [1] was < 0.1 µM, the EC50 [2] was < 0.1 µM and the EC50 [3] was 0.1 to 0.5 µM.
With `C[C@H]1CN(C(=O)OC(C)(C)C)CCN1c1ncnc2c1c(-c1cnccn1)cn2-c1cccc(Cl)c1` [Compound 120, tert-butyl (S)-4-(7-(3-chlorophenyl)-5-(pyrazin-2-yl)-7H-pyrrolo[2,3-d]pyrimidin-4-yl)-3-methylpiperazine-1-carboxylate] the EC50 [1] was 0.1 to 0.5 µM, the EC50 [2] was < 0.1 µM and the EC50 [3] was 0.1 to 0.5 µM.
In the case of `C[C@H]1CN(C(=O)OC(C)(C)C(F)(F)F)CCN1c1ncnc2c1c(-c1ccccn1)cn2-c1cccc(Cl)c1` [Compound 121, 1,1,1-trifluoro-2-methylpropan-2-yl (S)-4-(7-(3-chlorophenyl)-5-(pyridin-2-yl)-7H-pyrrolo[2,3-d]pyrimidin-4-yl)-3-methylpiperazine-1-carboxylate], the EC50 [1] is reported as < 0.1 µM, the EC50 [2] is reported as < 0.1 µM and the EC50 [3] is reported as 0.1 to 0.5 µM.
`CC(C)(C)OC(=O)N1CCN(c2ncnc3c2c(C2CC2)cn3-c2cc(Cl)cc(Cl)c2)CC1` [Compound 122, tert-butyl 4-(5-cyclopropyl-7-(3,5-dichlorophenyl)-7H-pyrrolo[2,3-d]pyrimidin-4-yl)piperazine-1-carboxylate] was tested, and the EC50 [1] was < 0.1 µM, the EC50 [2] was < 0.1 µM and the EC50 [3] was > 2 µM.
`C[C@@H]1CN(c2ncnc3c2c(C2CC2)cn3-c2cc(F)cc(Cl)c2)CCN1C(=O)OC(C)(C)C` [Compound 123, tert-butyl (R)-4-(7-(3-chloro-5-fluorophenyl)-5-cyclopropyl-7H-pyrrolo[2,3-d]pyrimidin-4-yl)-2-methylpiperazine-1-carboxylate] was tested, and the EC50 [1] was < 0.1 µM, the EC50 [2] was < 0.1 µM and the EC50 [3] was 0.1 to 0.5 µM.
`C[C@@H]1CN(c2ncnc3c2c(-c2cnccn2)cn3-c2cccc(Cl)c2)[C@@H](C)CN1C(=O)OC(C)(C)C` [Compound 124, tert-butyl (2R,5S)-4-(7-(3-chlorophenyl)-5-(pyrazin-2-yl)-7H-pyrrolo[2,3-d]pyrimidin-4-yl)-2,5-dimethylpiperazine-1-carboxylate] was tested, and the EC50 [1] was < 0.1 µM, the EC50 [2] was 0.1 to 0.5 µM and the EC50 [3] was 0.5 to 2 µM.
For `C[C@H]1CN(C(=O)OC(C)(C)C)CCN1c1ncnc2c1c(C1CC1)cn2-c1cccc(F)c1` [Compound 127, tert-butyl (S)-4-(5-cyclopropyl-7-(3-fluorophenyl)-7H-pyrrolo[2,3-d]pyrimidin-4-yl)-3-methylpiperazine-1-carboxylate], the EC50 [1] was < 0.1 µM, the EC50 [2] was < 0.1 µM and the EC50 [3] was 0.1 to 0.5 µM.
With `C[C@H]1CN(C(=O)OC(C)(C)C)CCN1c1ncnc2c1c(C1CC1)cn2-c1ccc(F)cc1` [Compound 128, tert-butyl (S)-4-(5-cyclopropyl-7-(4-fluorophenyl)-7H-pyrrolo[2,3-d]pyrimidin-4-yl)-3-methylpiperazine-1-carboxylate] the EC50 [1] was < 0.1 µM, the EC50 [2] was < 0.1 µM and the EC50 [3] was 0.1 to 0.5 µM.
For `C[C@H]1CN(C(=O)OC(C)(C)C)CCN1c1ncnc2c1c(C1CC1)cn2-c1cc(Cl)cc(Cl)c1` [Compound 129, tert-butyl (S)-4-(5-cyclopropyl-7-(3,5-dichlorophenyl)-7H-pyrrolo[2,3-d]pyrimidin-4-yl)-3-methylpiperazine-1-carboxylate], the EC50 [1] was < 0.1 µM, the EC50 [2] was < 0.1 µM and the EC50 [3] was 0.1 to 0.5 µM.
For `C[C@@H]1CN(c2ncnc3c2c(C2CC2)cn3-c2cccc(Cl)c2)[C@@H](C)CN1C(=O)OC(C)(C)C` [Compound 130, tert-butyl (2R,5S)-4-(7-(3-chlorophenyl)-5-cyclopropyl-7H-pyrrolo[2,3-d]pyrimidin-4-yl)-2,5-dimethylpiperazine-1-carboxylate], the EC50 [1] was < 0.1 µM, the EC50 [2] was < 0.1 µM and the EC50 [3] was 0.1 to 0.5 µM.

From patent US20250136606A1, “MODULATORS OF TRPML, THEIR COMPOSITIONS AND METHODS OF USE” (Caraway Therapeutics, Inc., priority 2021, published 2025)
